One assay concerns the target T1, LXRβ (Homo sapiens, UniProt P55055).
T1 sequence (P55055 1-460): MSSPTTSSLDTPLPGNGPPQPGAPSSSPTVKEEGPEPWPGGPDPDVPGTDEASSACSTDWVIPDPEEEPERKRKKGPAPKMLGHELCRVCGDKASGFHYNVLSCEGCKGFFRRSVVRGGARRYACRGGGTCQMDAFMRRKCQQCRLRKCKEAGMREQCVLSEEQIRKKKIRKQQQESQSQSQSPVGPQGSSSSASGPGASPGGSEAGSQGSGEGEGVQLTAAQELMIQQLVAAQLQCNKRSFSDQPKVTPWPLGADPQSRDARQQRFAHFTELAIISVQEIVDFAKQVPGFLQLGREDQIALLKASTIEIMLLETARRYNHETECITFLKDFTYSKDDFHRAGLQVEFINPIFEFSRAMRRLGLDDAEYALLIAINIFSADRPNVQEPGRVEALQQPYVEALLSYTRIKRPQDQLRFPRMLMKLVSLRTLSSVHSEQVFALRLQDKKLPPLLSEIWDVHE
The assay is described as follows: LXR Gal4 reporter transient transfection assay (mammalian two-hybrid, HEK293), LXRβ. Set-up: LXRβ (amino acids 156-461); expressed in transfected cells; host or cells: HEK293. The class given is cell-based. The note with it: full length (FL) LXRβ, HEK293; read-out: FL-M2H Gal4β. An outline of the steps: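 Mammalian two-hybrid read-out of LXR–coactivator (SRC1) or corepressor (NCoR) interaction: firefly luciferase under GAL4 response elements, normalised via Renilla co-transfection. LXRα/β full-length or LBD fusions expressed transiently in HEK293; compounds (final DMSO ≤0.2%) given 4 h after transfection for 16 h before lysis.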

The target in assay [1] is T2, GST-LXRβ ligand-binding domain (Homo sapiens, UniProt P55055).
T2 construct: amino acids 156-461; NP009052; made in house; host or cells: E. coli
T2 sequence (P55055 156-460 limits assumed): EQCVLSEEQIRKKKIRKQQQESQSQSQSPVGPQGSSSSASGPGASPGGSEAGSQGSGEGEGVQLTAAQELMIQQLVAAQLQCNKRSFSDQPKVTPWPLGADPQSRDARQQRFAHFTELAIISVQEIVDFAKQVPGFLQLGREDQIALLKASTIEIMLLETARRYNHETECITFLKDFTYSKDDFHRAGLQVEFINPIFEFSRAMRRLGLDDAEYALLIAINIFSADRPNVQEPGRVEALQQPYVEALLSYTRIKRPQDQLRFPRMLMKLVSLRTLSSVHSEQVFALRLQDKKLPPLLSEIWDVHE
The assay is described as follows: TR-FRETβ activity assay (NCoA3 coactivator peptide recruitment). The class given is biochemical. The following applies: 1 μM 24(S)-25-epoxycholesterol prestimulation. An outline of the steps: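 Inverse-agonist format, with LXR prestimulated by 1 μM 24(S)-25-epoxycholesterol in pH 6.8 Tris/HCl, 240 mM KCl, BSA and Triton. Ten concentrations from 50 μM to 0.002 μM were equilibrated 1 h at 4° C with 76 nM GST-LXRβ LBD and 400 nM biotin-NCoA3 peptide. Peptide recruitment detected by 665/615 nm TR-FRET.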

Structures are written as SMILES.

Take `CC(C)(C)OC(=O)CNC(=O)c1ccc(-c2cccc(-c3c(-c4c(C#N)cccc4C#N)c4cc(F)ccc4n3S(=O)(=O)c3ccc(C(F)F)cc3)c2)c(Cl)c1` [6/3]: the EC50 (at LXRβ; in assay [1]) was < 100 nM throughout.
As for `Cc1ccc(S(=O)(=O)n2c(-c3cccc(-c4ccc(CN(C)C)cc4)c3)c(-c3ccsc3C#N)c3cc(F)ccc32)cc1` [8/1], the EC50 was < 100 nM at LXRβ and 100 to 1000 nM in assay [1].
On to `O=C(O)c1ccc(-c2cccc(-c3c(-c4ccccc4C4COC4)c4cnccc4n3S(=O)(=O)c3ccc(C(F)F)cc3)c2)c(Cl)c1` [8/3], for which the EC50 is < 100 nM at LXRβ and 100 to 1000 nM in assay [1].
The corresponding values for `N#Cc1ccccc1-c1c(-c2cccc(-c3ccc(C(=O)O)cc3Cl)c2)n(S(=O)(=O)c2ccc(C(F)F)cc2)c2cccnc12` [8/7] are < 100 nM and 100 to 1000 nM.
The corresponding values for `N#Cc1sccc1-c1c(-c2cccc(-c3ccc(C(=O)NCCS(=O)(=O)O)cc3Cl)c2)n(S(=O)(=O)c2ccc(C(F)F)cc2)c2ccc(F)cc12` [10/3] are < 100 nM and < 100 nM.
The corresponding values for `O=C(NCCS(=O)(=O)O)C1CC1c1cccc(-c2c(-c3c(Cl)cccc3Cl)c3cc(F)ccc3n2S(=O)(=O)c2ccc(C(F)F)cc2)c1` (stereo not drawn) [10/4] are < 100 nM and < 100 nM.
Consider `Cc1ccc(S(=O)(=O)n2c(-c3cccc(-c4ccc(C(=O)O)cc4Cl)c3)c(-c3cccc(F)c3C#N)c3cc(F)ccc32)cc1` [11/1], for which the EC50 (on LXRβ; in assay [1]) was < 100 nM in each case.
On to `Cc1ccc(S(=O)(=O)n2c(-c3cccc(-c4ccc(C(=O)O)cc4Cl)c3)c(-c3cccc(C)c3C#N)c3cc(F)ccc32)cc1` [11/2], for which the EC50 (on LXRβ; in assay [1]) was < 100 nM in each case.
As to `COc1cccc(-c2c(-c3cccc(-c4ccc(C(=O)O)cc4Cl)c3)n(S(=O)(=O)c3ccc(C)cc3)c3ccc(F)cc23)c1C#N` [11/3], the EC50 (on LXRβ; in assay [1]) was < 100 nM throughout.
With `Cc1ccc(S(=O)(=O)n2c(-c3cccc(-c4ccc(C(=O)O)cc4Cl)c3)c(-c3ccc(C)cc3C#N)c3cc(F)ccc32)cc1` [11/4], the EC50 is < 100 nM on LXRβ and 100 to 1000 nM in assay [1].
The corresponding values for `Cc1ccc(S(=O)(=O)n2c(-c3cccc(-c4ccc(C(=O)O)cc4Cl)c3)c(-c3cc(C)ccc3C#N)c3cc(F)ccc32)cc1` [11/5] are < 100 nM and < 100 nM.
Take `Cc1ccc(S(=O)(=O)n2c(-c3cccc(-c4ccc(C(=O)O)cc4Cl)c3)c(-c3c(C)cccc3C#N)c3cc(F)ccc32)cc1` [11/6]: the EC50 (at LXRβ; in assay [1]) was < 100 nM each time.
Consider `N#Cc1sccc1-c1c(-c2cccc(-c3cc(F)c(C(=O)O)cc3Cl)c2)n(S(=O)(=O)c2ccc(CF)cc2)c2ccc(F)cc12` [11/7], for which the EC50 (on LXRβ; in assay [1]) was < 100 nM in each case.
Consider `N#Cc1sccc1-c1c(-c2cccc(-c3cc(F)c(C(=O)O)cc3Cl)c2)n(S(=O)(=O)c2ccc(C(F)F)cc2)c2ccc(F)cc12` [11/8], for which the EC50 (at LXRβ; in assay [1]) was < 100 nM in each case.
On to `N#Cc1scnc1-c1c(-c2cccc(-c3cc(F)c(C(=O)O)cc3Cl)c2)n(S(=O)(=O)c2ccc(C(F)F)cc2)c2ccc(F)cc12` [11/9], for which the EC50 (on LXRβ; in assay [1]) was < 100 nM in each case.
With `N#Cc1ccncc1-c1c(-c2cccc(-c3cc(F)c(C(=O)O)cc3Cl)c2)n(S(=O)(=O)c2ccc(C(F)F)cc2)c2ccc(F)cc12` [11/10], the EC50 (at LXRβ; in assay [1]) was < 100 nM in each case.
On to `Cc1cccc(C)c1-c1c(-c2cccc(-c3ccc(C(=O)O)cc3Cl)c2)n(S(=O)(=O)c2ccc(C(F)F)cc2)c2ccc(F)cc12` [11/14], for which the EC50 (on LXRβ; in assay [1]) was < 100 nM each time.
Turning to `O=C(O)c1ccc(-c2cccc(-c3c(-c4c(C(F)F)cccc4C(F)F)c4cc(F)ccc4n3S(=O)(=O)c3ccc(C(F)F)cc3)c2)c(Cl)c1` [11/15], the EC50 (on LXRβ; in assay [1]) was < 100 nM each time.

Source of the values: US20260083704A1, “LXR MODULATORS WITH BICYCLIC CORE MOIETY FOR TREATING DYSLIPIDEMIAS” (OrsoBio, Inc., priority 2022, published 2026).
